Reference: US12290512B2, “Gel composition with an anaesthetic effect of short and long term duration” (priority 2018, dated 2025)

Test: anaesthetic effect (onset and duration) of gel composition administered through the urethra
Format: in vivo
Settings: gel compositions comprising the anaesthetic

Row | SMILES | duration of action | onset of action [min]
1 | CCCCN1CCCCC1C(=O)Nc1c(C)cccc1C (centres unmarked) [bupivacaine] | up to 7 hours | 7 to 10
2 | CCN(CC)CC(=O)Nc1c(C)cccc1C [lidocaine] | 15 to 20 min | –
3 | CCCN1CCCC[C@H]1C(=O)Nc1c(C)cccc1C [ropivacaine] | 120 to 600 min | 10 to 20
